In ChEMBL document CHEMBL1201862, “PubChem BioAssay data set” (2004):
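In this assay, cells in 96-well plates receive the compound at five concentrations for 48 hours. Endpoints are linearly interpolated between the surrounding concentrations. GI50: concentration for 50% inhibition of growth.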 Calls of active or inactive are those of the source. Cut-off read from the data, not from the text of the source: active = GI50 up to about 1.1 µM and inactive = higher.

Columns and labels:
Experiment in all cases: NCI-60 cell line screen, 48 h
ACHN = system: ACHN
OVCAR-4 = system: OVCAR-4
KM12 = system: KM12
SF-295 = system: SF-295
A549 = system: A549
SK-MEL-5 = system: SK-MEL-5
M14 = system: M14
MOLT-4 = system: MOLT-4
HCT-15 = system: HCT-15
NCI-H460 = system: NCI-H460
UO-31 = system: UO-31
IGROV-1 = system: IGROV-1
LOX IMVI = system: LOX IMVI
HOP-92 = system: HOP-92
OVCAR-8 = system: OVCAR-8
SN12C = system: SN12C
NCI/ADR-RES = system: NCI/ADR-RES
T47D = system: T47D
DU-145 = system: DU-145
Hs-578T = system: Hs-578T

| Structure (SMILES) | GI50 (ACHN) | GI50 (OVCAR-4) | GI50 (KM12) | GI50 (SF-295) | GI50 (A549) | GI50 (SK-MEL-5) | GI50 (M14) | GI50 (MOLT-4) | GI50 (HCT-15) [µM] | GI50 (NCI-H460) | GI50 (UO-31) | GI50 (IGROV-1) | GI50 (LOX IMVI) | GI50 (HOP-92) | GI50 (OVCAR-8) | GI50 (SN12C) | GI50 (NCI/ADR-RES) | GI50 (T47D) | GI50 (DU-145) | GI50 (Hs-578T) |
| --- | --- | --- | --- | --- | --- | --- | --- | --- | --- | --- | --- | --- | --- | --- | --- | --- | --- | --- | --- | --- |
| COc1cccc(NC(=O)CSc2nnc(-c3ccc(NC(C)=O)cc3)o2)c1 | > 100 µM (inactive) | > 100 µM (inactive) | 49.4 µM (inactive) | > 100 µM (inactive) | > 100 µM (inactive) | > 100 µM (inactive) | > 100 µM (inactive) | > 100 µM (inactive) | > 100 | > 100 µM (inactive) | 80.4 µM (inactive) | 50 µM (inactive) | > 100 µM (inactive) | > 100 µM (inactive) | > 100 µM (inactive) | > 100 µM (inactive) | – | – | – | – |
| O=S(=O)(c1ccccc1)N1CCCC(c2ccccc2)CC1 (stereo unspecified) | 29.2 µM (inactive) | 79.1 µM (inactive) | 41 µM (inactive) | 43.7 µM (inactive) | 27.2 µM (inactive) | 14.6 µM (inactive) | > 100 µM (inactive) | 15.2 µM (inactive) | 46.5 | 31.2 µM (inactive) | 55 µM (inactive) | > 100 µM (inactive) | – | > 100 µM (inactive) | 37.2 µM (inactive) | 46 µM (inactive) | 38 µM (inactive) | 44.1 µM (inactive) | > 100 µM (inactive) | – |
| Cc1ccc(S(=O)(=O)Nc2cccc3c(=O)nc[nH]c23)cc1 | 66.8 µM (inactive) | > 100 µM (inactive) | > 100 µM (inactive) | 82.6 µM (inactive) | 72.8 µM (inactive) | 43.9 µM (inactive) | > 100 µM (inactive) | 34.3 µM (inactive) | 61.5 | > 100 µM (inactive) | > 68.1 µM (inactive) | > 100 µM (inactive) | 96.6 µM (inactive) | > 39.6 µM (inactive) | > 100 µM (inactive) | > 100 µM (inactive) | – | – | – | – |
| CCOP1(=O)C=CC(Cl)=C(C)C1 (stereo unspecified) | 8.63 µM (inactive) | 16.4 µM (inactive) | 18.3 µM (inactive) | 35.2 µM (inactive) | 31.1 µM (inactive) | 17.7 µM (inactive) | 14.7 µM (inactive) | 3.64 µM (inactive) | 13.7 | 27.4 µM (inactive) | 25.6 µM (inactive) | 23.4 µM (inactive) | 19.2 µM (inactive) | 16.9 µM (inactive) | 19.6 µM (inactive) | 11.7 µM (inactive) | – | – | – | – |
| CC(=O)Nc1ccc(/N=C2\C(c3ccccc3)=C(SC3=C(c4ccccc4)/C(=N\c4ccc(NC(C)=O)cc4)c4ccccc43)c3ccccc32)cc1 | 31.8 µM (inactive) | 29.6 µM (inactive) | 27 µM (inactive) | 31 µM (inactive) | 37.2 µM (inactive) | 15.8 µM (inactive) | 27 µM (inactive) | 21.6 µM (inactive) | 44.5 | 26.7 µM (inactive) | 24.7 µM (inactive) | 32.1 µM (inactive) | 28.8 µM (inactive) | 27 µM (inactive) | 29.6 µM (inactive) | 61.2 µM (inactive) | 27.2 µM (inactive) | 12.9 µM (inactive) | 37.8 µM (inactive) | – |
| NC(CCCCNC(=O)OCc1ccccc1)C(=O)NC(CCCCNC(=O)OCc1ccccc1)C(=O)ON1C(=O)CCC1=O (stereo unspecified) | > 100 µM (inactive) | – | > 100 µM (inactive) | – | > 100 µM (inactive) | > 100 µM (inactive) | > 100 µM (inactive) | > 100 µM (inactive) | > 100 | > 100 µM (inactive) | > 100 µM (inactive) | > 100 µM (inactive) | – | > 100 µM (inactive) | > 100 µM (inactive) | > 100 µM (inactive) | – | > 100 µM (inactive) | – | > 100 µM (inactive) |
| C=C1c2nc3ccccc3n2C=C(c2ccccc2)N1c1ccc(C)cc1 | 53.5 µM (inactive) | 71.8 µM (inactive) | 22.7 µM (inactive) | > 100 µM (inactive) | > 100 µM (inactive) | 25.7 µM (inactive) | > 100 µM (inactive) | 20.6 µM (inactive) | 35.4 | 56.6 µM (inactive) | 36.1 µM (inactive) | > 100 µM (inactive) | 33.6 µM (inactive) | 41.4 µM (inactive) | 48.5 µM (inactive) | 85.5 µM (inactive) | 37.7 µM (inactive) | – | > 100 µM (inactive) | – |
| CCOC(=O)c1ccc(/N=N/N(C)C(=O)C(C)N)cc1 (stereo unspecified) | 49.5 µM (inactive) | > 100 µM (inactive) | > 100 µM (inactive) | > 100 µM (inactive) | – | > 100 µM (inactive) | > 100 µM (inactive) | 43.7 µM (inactive) | > 100 | 16.7 µM (inactive) | 88.7 µM (inactive) | 72.4 µM (inactive) | > 100 µM (inactive) | 46.7 µM (inactive) | > 100 µM (inactive) | > 100 µM (inactive) | > 100 µM (inactive) | > 100 µM (inactive) | > 100 µM (inactive) | – |
